Measurements reported in US8921108B2, “Differentiated human liver cell cultures and their use in bioartificial liver systems” (Academisch Ziekenhuis Bij de Universiteit van Amsterdam, priority 2009, dated 2014).
Several values for one entry are separate records, joined by “and”; a condition that tells them apart may be missing. Equal values may be shown once.

What was measured:
Arginase II (Arg II) = molecular target: T1, Arginase II (Arg II) (Homo sapiens, UniProt P78540); conditions: C3A cells; cited from earlier work
T1 construct: Arginase II (Arg II) mRNA and protein was expressed at high levels in C3A cells; endogenous in cells; host or cells: C3A cells (HepG2 sub-clone)
T1 sequence (P78540 23-354): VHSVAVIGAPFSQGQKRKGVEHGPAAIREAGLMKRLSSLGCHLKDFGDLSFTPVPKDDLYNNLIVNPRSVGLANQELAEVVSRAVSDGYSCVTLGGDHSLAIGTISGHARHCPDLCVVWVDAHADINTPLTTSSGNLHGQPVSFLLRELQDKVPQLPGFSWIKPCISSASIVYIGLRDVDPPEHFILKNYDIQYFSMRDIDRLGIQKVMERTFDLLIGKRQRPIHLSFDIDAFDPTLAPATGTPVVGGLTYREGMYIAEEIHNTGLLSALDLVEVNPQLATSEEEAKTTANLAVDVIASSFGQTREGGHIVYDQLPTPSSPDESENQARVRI

HepaRG cells [1] = assay: AST and LDH leakage of HepaRG monolayer cultures; assay type: cell-based, human; conditions: HepaRG monolayer +DMSO
Procedure: (§1) For testing, the cells are seeded in 6-well and 24-well culture plates (Corning) in HepaRG media with different FBS batches or other differences in medium composition. After a 2 weeks proliferation phase, 2% of DMSO will be added to half of the cultures. After another 2 weeks of culturing, the confluence and morphology of the cultures will be assessed microscopically. Furthermore the +DMSO and −DMSO cell cultures in the 24-well plates will be tested for biochemical activity, i.e. urea production, ammonia elimination and protein content. The cultured cells are washed twice using phosphate buffered saline (PBS, NBPI International) and then incubated with test medium consisting of HepaRG culture medium supplemented with 1.5 mM ^15NH4Cl (Sigma), 2.75 mM D-galactose (Sigma), 2 mM ornithine hydrochloride (Sigma) and 2 mM L-lactate (Sigma). Medium samples are taken after 1 hr from the culture wells, as a reference, and after 24 hours. At the end of the test period the cells are washed three times using PBS and stored at −20° C. for protein determination. From the changes in concentration at t=1 hr and 24 hr of urea and ammonia an activity per hour and per mg protein/well is calculated. Quality of the cell-loaded bioreactors, measured by hepatocyte function at the start of the treatment, will be compared with values of primary hepatocytes that have been tested extensively in vitro in the past.
AST and LDH: Both AST and LDH activities are analyzed spectrophotometrically using a P800 Roche Diagnostics analyzer.

HepaRG cells [2] = assay: Ammonia elimination of HepaRG monolayer cultures; assay type: cell-based, human
Procedure: For testing, the cells are seeded in 6-well and 24-well culture plates (Corning) in HepaRG media with different FBS batches or other differences in medium composition. After a 2 weeks proliferation phase, 2% of DMSO will be added to half of the cultures. After another 2 weeks of culturing, the confluence and morphology of the cultures will be assessed microscopically. Furthermore the +DMSO and −DMSO cell cultures in the 24-well plates will be tested for biochemical activity, i.e. urea production, ammonia elimination and protein content. […] From the changes in concentration at t=1 hr and 24 hr of urea and ammonia an activity per hour and per mg protein/well is calculated. Quality of the cell-loaded bioreactors, measured by hepatocyte function at the start of the treatment, will be compared with values of primary hepatocytes that have been tested extensively in vitro in the past.
Ammonia: Ammonia concentrations are determined by an enzymatic kinetic colorimetric assay using glutamate dehydrogenase and NADPH, using the Ammonia (rapid) kit (Megazyme, Ireland) according to the instructions of the manufacturer.

HepaRG cells [3] = assay: 15N urea enrichment (conversion of ammonia into urea) in HepaRG monolayer cultures; assay type: cell-based, human; conditions: HepaRG monolayer +DMSO, no CG
Procedure: as §1
^15N Urea: Single and Double labelled urea is measured in the test medium samples using mass-spectrometry.
(§2) The HepaRG cells are cultured as indicated above in 24 well in presence or absence of 1 mM CG during the last 5 days. Next the cells are tested as indicated above in presence or absence of CG during 24 hours. To determine the conversion of ammonia into urea, the ^15N urea enrichment (single and double labeled) is measured in the test samples using mass-spectrometry. Similarly, HepG2 and cBAL111 cells were tested for their response to CG.

HepaRG cells [4] = assay: Lactate elimination/consumption of HepaRG monolayer cultures; assay type: cell-based, human
Procedure: as §1, with “At the end of the test period the cells are washed three times using PBS and stored at −20° C. for protein determination.” left out
Lactate and glucose concentration: Both are analyzed using a P800 analyzer (Roche Diagnostics).

HepaRG cells [5] = assay: RT-PCR mRNA levels of hepatic genes in HepaRG monolayer cultures; assay type: cell-based, human
Procedure: The HepaRG cells cultured in the 6-well plates are lysed and the RNA is isolated using the RNeasy kit (Qiagen). Next, real-time reverse transcriptase-polymerase chain reactions (RT-PCR) are performed to quantify mRNA levels of hepatic genes as well as 18S ribosomal RNA levels by RT-PCR.
First-strand cDNA is generated using a combination of 40 pmol of gene-specific RT-primers (see Table 1) and 134 units of Superscript III (Invitrogen) and 1 μg RNA in a total volume of 25 μl at 50° C. for one hour followed by a 15 min incubation at 70° C. The resulting gene-specific RT reaction mixtures are column purified using Qiaquick PCR Purification Kit (Qiagen).
Real-time PCR is performed using 1 μl of cDNA and LightCycler FastStart DNA Master SYBR® Green 1 reagent (Roche). PCR primers are depicted in the Table 3. The thermal cycling profile of the touchdown PCR is as follows: 94° C. for 10 min, followed by 40 cycles of 94° C. for 1 s, primer annealing at 68° C. for 7 s with a 0.5° C./cycle decrease until 63° C., and extension for 40 s at 72° C. PCR specificity is verified by melting curve analysis and agarose gel electrophoresis. The mRNA quantification is carried out by using the LinRegPCR programme (Ramakers et al.^17). For each sample the mRNA starting level is normalised for the 18S rRNA starting level. To correct for variations between RT-PCR runs, the mRNA starting levels of liver specific genes of NKNT-3 cells are additionally standardized for average mRNA starting levels of two liver samples that are simultaneously subjected to RT-PCR.

HepaRG cells [6] = assay: Total protein content of HepaRG monolayer cultures; assay type: cell-based, human
Procedure: as §1
Total protein: Total protein was quantified by spectrometry using Coomassie blue (Bio-Rad).

HepaRG cells [7] = assay: ApoA1 production of HepaRG monolayer cultures (ELISA); assay type: cell-based, human
Procedure: as §1
ApoA1: Human ApoA1 concentrations are determined by ELISA using rabbit anti-human ApoA1 (1:500, Calbiochem, 178422), as first antibody, monoclonal mouse anti human ApoA1 (1:500, Calbiochem, 178472) as second antibody and polyclonal rabbit anti mouse IgG-HRP (1:2000, Dako Po 260) as third antibody.

HepaRG cells [8] = assay: Urea production of HepaRG monolayer cultures; assay type: cell-based, human
Procedure: For testing, the cells are seeded in 6-well and 24-well culture plates (Corning) in HepaRG media with different FBS batches or other differences in medium composition. After a 2 weeks proliferation phase, 2% of DMSO will be added to half of the cultures. After another 2 weeks of culturing, the confluence and morphology of the cultures will be assessed microscopically. Furthermore the +DMSO and −DMSO cell cultures in the 24-well plates will be tested for biochemical activity, i.e. urea production, ammonia elimination and protein content. […] Medium samples are taken after 1 hr from the culture wells, as a reference, and after 24 hours. At the end of the test period the cells are washed three times using PBS and stored at −20° C. for protein determination. From the changes in concentration at t=1 hr and 24 hr of urea and ammonia an activity per hour and per mg protein/well is calculated.
Urea: Urea concentrations of test medium samples are determined using the blood urea nitrogen test of Sigma Chemical Co according to the instructions of the manufacturer.
as §2

HepaRG cells [9] = assay: Galactose elimination of HepaRG monolayer cultures; assay type: cell-based, human; conditions: HepaRG monolayer +DMSO
Procedure: as §1

[10] = HepaRG monolayer +DMSO, per well
[11] = HepaRG monolayer, 2% DMSO last 2 weeks, no CG
[12] = HepaRG monolayer, DMSO treatment

N=C(NO)NCC[C@H](N)C(=O)O [N^ω-hydroxy-nor-L-arginine]
effect on Arginase II (Arginase II (Arg II)): inhibited | effect on urea production (Arginase II (Arg II)): prevented

C[S+](C)[O-] [DMSO, dimethylsulfoxide]
AST leakage (protein normalized) (HepaRG cells [1]): 4.9 ± 2.4 mU/h/mg protein | LDH leakage (protein normalized) (HepaRG cells [1]): 21.2 ± 9.4 mU/h/mg protein | AST leakage (absolute value) (HepaRG cells [1]; per well): 0.43 ± 0.08 mU/h | LDH leakage (absolute value) (HepaRG cells [1]; per well): 1.87 ± 0.43 mU/h | Ammonia elimination (absolute value) (HepaRG cells [2]; [10]): 11.6 ± 4.3 nmol/h | Ammonia elimination (HepaRG cells [2]; [11]): 107 ± 41 nmol/h/mg protein and 110 ± 49 nmol/h/mg protein | 15N urea enrichment (HepaRG cells [3]): 15.5 ± 8.4 % of total urea and 16.0 ± 8.4 % of total urea | Lactate consumption (HepaRG cells [4]; HepaRG monolayer +DMSO −CG): production | Lactate elimination (HepaRG cells [4]; [11]): production | ArgII mRNA level (HepaRG cells [5]; HepaRG monolayer +DMSO −CG): 718 ± 463 % of in vivo | ALB mRNA level (HepaRG cells [5]; [11]): 23 ± 4 % of in vivo and 22.7 ± 4.4 % of in vivo | ARG1 mRNA level (HepaRG cells [5]; [11]): 5 ± 4 % of in vivo and 4.6 ± 3.7 % of in vivo | CPS mRNA level (HepaRG cells [5]; [11]): 1.1 ± 0.4 % of in vivo | CYP2B6 mRNA level (HepaRG cells [5]; [11]): 61 ± 30 % of in vivo and 60.7 ± 30.0 % of in vivo | CYP3A4 mRNA level (HepaRG cells [5]; [11]): 69 ± 47 % of in vivo and 68.9 ± 47.2 % of in vivo | GS mRNA level (HepaRG cells [5]; [11]): 90 ± 29 % of in vivo and 90.1 ± 29.1 % of in vivo | HNF4 mRNA level (HepaRG cells [5]; [11]): 61 ± 21 % of in vivo and 60.8 ± 21.1 % of in vivo | PXR mRNA level (HepaRG cells [5]; [11]): 42 ± 19 % of in vivo and 41.7 ± 19.2 % of in vivo | effect on CYP2B6 and 3A4 expression (HepaRG cells [5]; [12]): increased | effect on expression of other hepatic genes tested (HepaRG cells [5]; [12]): either unaffected or decreased | effect on gene expression of synthetic and metabolic genes, as CPS and albumin and galactose elimination (HepaRG cells [5]; presence of DMSO): inhibited | total protein/well (HepaRG cells [6]; [11]): 109 ± 21 µg | cells killed by DMSO treatment (HepaRG cells [6]; HepaRG monolayer, deduced from total protein/well content and increased cell leakage): more than 50% | effect on cell number (HepaRG cells [6]; presence of DMSO, deduced from total protein content): drastically reduced | ApoA1 synthesis (HepaRG cells [7]; HepaRG monolayer +DMSO −CG): 1.2 ± 1.1 ug/h/mg protein | ApoA1 production (absolute value) (HepaRG cells [7]; [10]): 0.11 ± 0.11 µg/h | ApoA1 production (HepaRG cells [7]; [11]): 1.06 ± 0.95 μg/h/mg protein | Urea production (absolute value) (HepaRG cells [8]; [10]): 0.8 ± 0.5 nmol/h | Urea production (HepaRG cells [8]; [11]): 8.1 ± 6.8 nmol/h/mg protein and 6.0 ± 4.2 nmol/h/mg protein and 7.0 ± 7.0 nmol/h/mg protein | Galactose elimination (protein normalized) (HepaRG cells [9]): 58 ± 17 nmol/h/mg protein | Galactose elimination (absolute value) (HepaRG cells [9]; per well): 7.2 ± 1.8 nmol/h
